Measurements taken from US12509459B2, “Inhibitors of NLRP3 inflammasome” (BioAge Labs, Inc., priority 2024, dated 2025).

Each compound was assayed against NLRP3 (Homo sapiens, UniProt Q96P20) (assay: THP-1 cell-based NLRP3 activation assay). Conditions: PMA-differentiated THP-1 cells, LPS 100 ng/mL then 10 μM nigericin.
Parameters: endogenous in cells; host or cells: THP-1 cells (PMA-differentiated, LPS-primed, nigericin-stimulated)
Method: THP-1 cells are cultured in complete media (CM) until they reach logarithmic growth and achieve a viability >90%. CM is composed of RPMI-1640 (+Glutamax)/10% fetal bovine serum/55 μM β-mercaptoethanol/pen/strep. Cells are spun down and resuspended to 1,000,000 cells/mL in CM containing either 20 nM or 500 nM PMA. 150,000 cells (150 μL) are then added to each well of a 96-well TC plate and incubated for either 24 hr or 3 hr, respectively, in a standard cell culture incubator (37° C.; 5% CO2). After this incubation, the plate is tilted and media carefully removed. 200 μL of CM containing 100 ng/mL LPS is then added to the wells and the cells incubated an additional 3 hrs. The media is again removed and replaced with Opti-Mem medium containing pre-determined dilutions of test compounds in replicate wells. After a 30 min incubation, 10 μM nigericin (final concentration) in Opti-Mem medium with the corresponding concentration of compound is added to the wells for an additional 1 hr. Positive control wells contain 10 μM nigericin in Opti-Mem in the absence of test compound, while negative control wells contain Opti-Mem only. […] Once supernatants are removed, the relative viability of adherent cells in the 96-well TC plate are determined using a CellTiter-Glo® luminescent cell viability assay (Promega).

Sequence of NLRP3 (Q96P20 whole entry): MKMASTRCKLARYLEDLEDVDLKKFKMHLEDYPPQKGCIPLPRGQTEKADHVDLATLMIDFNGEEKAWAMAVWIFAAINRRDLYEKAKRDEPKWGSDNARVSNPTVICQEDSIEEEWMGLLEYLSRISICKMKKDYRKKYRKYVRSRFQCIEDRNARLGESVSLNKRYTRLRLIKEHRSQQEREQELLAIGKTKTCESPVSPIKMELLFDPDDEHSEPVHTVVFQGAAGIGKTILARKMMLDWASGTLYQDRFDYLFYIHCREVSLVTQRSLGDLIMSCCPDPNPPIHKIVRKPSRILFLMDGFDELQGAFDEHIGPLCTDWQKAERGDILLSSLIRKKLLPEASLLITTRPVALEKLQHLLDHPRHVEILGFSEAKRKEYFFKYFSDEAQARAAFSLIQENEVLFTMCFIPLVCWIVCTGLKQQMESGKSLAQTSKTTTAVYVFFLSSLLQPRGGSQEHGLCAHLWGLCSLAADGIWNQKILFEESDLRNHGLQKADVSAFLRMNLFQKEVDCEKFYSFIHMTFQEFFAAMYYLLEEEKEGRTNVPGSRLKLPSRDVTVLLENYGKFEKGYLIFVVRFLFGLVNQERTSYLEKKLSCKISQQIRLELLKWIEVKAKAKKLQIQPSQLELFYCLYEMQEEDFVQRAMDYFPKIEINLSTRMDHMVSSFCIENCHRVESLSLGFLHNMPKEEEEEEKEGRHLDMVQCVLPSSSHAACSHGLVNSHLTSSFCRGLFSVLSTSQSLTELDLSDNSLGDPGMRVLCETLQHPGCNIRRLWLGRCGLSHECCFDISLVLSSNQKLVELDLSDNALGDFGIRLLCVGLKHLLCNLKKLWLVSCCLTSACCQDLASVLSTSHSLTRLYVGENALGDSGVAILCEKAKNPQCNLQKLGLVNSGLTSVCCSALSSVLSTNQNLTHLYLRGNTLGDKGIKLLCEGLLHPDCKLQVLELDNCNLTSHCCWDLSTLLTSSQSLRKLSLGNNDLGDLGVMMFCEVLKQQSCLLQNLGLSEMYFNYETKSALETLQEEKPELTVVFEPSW

IC50 | Compound
< 100 nM | CCOc1cc(C(=O)N(C)C(CN2CC(O)C2)c2cncc3cn[nH]c23)ccc1-c1cccc(F)c1 (stereo not shown) [Compound 246]
< 100 nM | CCOc1cc(C(=O)N(Cc2ccc(C)c3cn[nH]c23)[C@H]2C[C@@H](NC)C2)ccc1-c1cccc(Cl)c1 [Compound 286]
< 100 nM | CCOc1cc(C(=O)N(C)[C@@H](c2cncc3cn[nH]c23)C2CN(C(C)C)C2)ccc1-c1ccccc1 [Compound 179]
< 100 nM | CCOc1cc(C(=O)N(C)[C@H](CCN2CCCC2)c2cncc3cn[nH]c23)ccc1-c1cccc(F)c1 [Compound 104]
< 100 nM | CCOc1cc(C(=O)N(C)[C@H](CO)c2cnc(CO)c3cn[nH]c23)ccc1-c1cccc(F)c1 [Compound 037]
< 100 nM | CCOc1cc(C(=O)N(C)[C@H](CCOC)c2cncc3cn[nH]c23)ccc1-c1cccc(F)c1 [Compound 015]
< 100 nM | CCOc1cc(C(=O)N(C)[C@H](CO)c2cncc3cn[nH]c23)ccc1-c1cccc(Cl)c1 [Compound 004]
< 100 nM | Cc1ncc([C@@H](CCO)N(C)C(=O)c2ccc(-c3cccc(Cl)c3)c(OC3CC3)c2)c2[nH]ncc12 [Compound 026]
< 100 nM | CCOc1cc(C(=O)N(CCN2CCCC(F)C2)Cc2cncc3cn[nH]c23)ccc1-c1cccc(F)c1 (stereo not shown) [Compound 114]
< 100 nM | CCOc1cc(C(=O)N(C)[C@H](CCN(C)C)c2cnc(C)c3cn[nH]c23)ccc1-c1cc(Cl)cc(Cl)c1 [Compound 083]
< 100 nM | CCOc1cc(C(=O)N(C)[C@H](CCN2CC(F)C2)c2cncc3cn[nH]c23)ccc1-c1cccc(F)c1 [Compound 070]
< 100 nM | CCOc1cc(C(=O)N(C)[C@@H](c2cncc3cn[nH]c23)C2CNC2)ccc1-c1cccc(F)c1 [Compound 097]
100 to 500 nM | CCOc1cc(C(=O)N(C)[C@H](c2cncc3cn[nH]c23)[C@@H]2CCNC2)ccc1-c1cccc(F)c1 (single isomer, unassigned) [Compound 088]
500 to 1000 nM | CCOc1cc(C(=O)N(Cc2cncc3cn[nH]c23)[C@H]2CC[C@@H]2N)ccc1-c1cccc(F)c1 [Compound 294]
< 100 nM | CCOc1cc(C(=O)N(C)[C@H](CCN(C)CCOC)c2cncc3cn[nH]c23)ccc1-c1cccc(F)c1 [Compound 263]
< 100 nM | CN(C(=O)c1ccc(-c2cccc(Cl)c2)c(OC2CC2)c1)[C@H](CO)c1cncc2cn[nH]c12 [Compound 006, (S)-3′-chloro-2-cyclopropoxy-N-(2-hydroxy-1-(1H-pyrazolo[4,3-c]pyridin-7-yl)ethyl)-N-methyl-[1,1′-biphenyl]-4-carboxamide]
< 100 nM | CCOc1cc(C(=O)N(C)[C@H](c2cncc3cn[nH]c23)C2CNC2)ccc1-c1cccc(C)c1 [Compound 170]
100 to 500 nM | CCOc1cc(C(=O)N(Cc2cnc(C)c3cn[nH]c23)[C@@H]2CC[C@H]2O)ccc1-c1cccc(F)c1 [Compound 057]
< 100 nM | CCOc1cc(C(=O)N(CCO)Cc2cncc3cn[nH]c23)ccc1-c1cccc(Cl)c1 [Compound 042]
< 100 nM | CN(C)CC[C@H](c1cncc2cn[nH]c12)N(C)C(=O)c1ccc(-c2cccc(C#N)c2)c(OC2CC2)c1 [Compound 149]
< 100 nM | CCOc1cc(C(=O)N(C)[C@H](CCN(C)C)c2cccc3cn[nH]c23)ccc1-c1cccc(Cl)c1 [Compound 213]
> 15000 nM | CCOc1cc(C(=O)N(C)[C@@H](CCO)c2cnc(C)c3cn[nH]c23)ccc1-c1cccc(C#N)c1 [Compound 030]
< 100 nM | CCOc1cc(C(=O)N(C)[C@@H](CCN(C)C)c2ccc(C)c3cn[nH]c23)ccc1-c1ccccc1 [Compound 205]
< 100 nM | CCOc1cc(C(=O)N(CCN2C[C@@H](F)[C@@H](F)C2)Cc2cncc3cn[nH]c23)ccc1-c1cccc(F)c1 [Compound 108]
< 100 nM | CCOc1cc(C(=O)N(C)[C@@H](c2cnc(C)c3cn[nH]c23)C2CNC2)ccc1-c1cccc(F)c1 [Compound 078]
> 15000 nM | CCOc1cc(C(=O)N(Cc2cnc(C)c3cn[nH]c23)C2COC2)ccc1-c1cccc(F)c1 [Compound 054]
< 100 nM | CCOc1cc(C(=O)N(C)[C@@H](CN2CCCC2)c2cncc3cn[nH]c23)ccc1-c1cccc(F)c1 [Compound 130]
1000 to 15000 nM | CCOc1cc(C(=O)N(Cc2cncc3cn[nH]c23)[C@H]2C[C@@H](NC)C2)ccc1-c1cccc(F)c1 [Compound 234]

Continued, compound first:

Compound | IC50
CCOc1cc(C(=O)N(Cc2cccc3cn[nH]c23)[C@H]2C[C@@H](NC)C2)ccc1-c1cccc(F)c1 [Compound 252] | < 100 nM
CCOc1cc(C(=O)N(C)[C@H](CCC2CN(C)C2)c2cccc3cn[nH]c23)ccc1-c1cccc(F)c1 [Compound 297] | 100 to 500 nM
CCOc1cc(C(=O)N(C)[C@H](c2cncc3cn[nH]c23)C2CN(CC)C2)ccc1-c1cccc(F)c1 [Compound 174] | < 100 nM
CCOc1cc(C(=O)N(C)[C@H](CO)c2cnc(C)c3cn[nH]c23)ccc1-c1cccc(F)c1 [Compound 017] | < 100 nM
CCOc1cc(C(=O)N(C)[C@H](CC[N+](C)(C)[O-])c2cncc3cn[nH]c23)ccc1-c1cccc(Cl)c1 [Compound 163] | < 100 nM
CCOc1cc(C(=O)N(C)[C@H](CC[N+](C)(C)[O-])c2cncc3cn[nH]c23)ccc1-c1cccc(F)c1 [Compound 145] | 1000 to 15000 nM
CCOc1cc(C(=O)N(C)[C@@H](c2cncc3cn[nH]c23)[C@@H]2CCNC2)ccc1-c1cccc(F)c1 (single isomer, unassigned) [Compound 087] | < 100 nM
CCOc1cc(C(=O)N(C)[C@@H](CCO)c2cncc3cn[nH]c23)ccc1-c1cccc(F)c1 [Compound 009] | < 100 nM
CCOc1cc(C(=O)N(C)[C@H](CO)c2cncc3cn[nH]c23)ccc1-c1ccccc1 [Compound 005] | < 100 nM
CCOc1cc(C(=O)N(C)[C@@H](CN(C)CC)c2cccc3cn[nH]c23)ccc1-c1cccc(F)c1 [Compound 259] | < 100 nM
CN(C(=O)c1ccc(-c2cccc(F)c2)c(OC2CC2)c1)[C@@H](CCO)c1cncc2cn[nH]c12 [Compound 011] | 1000 to 15000 nM
CCOc1cc(C(=O)N(C)[C@@H](c2cncc3cn[nH]c23)C2CN(C)C2)ccc1-c1cccc(C#N)c1 [Compound 143] | < 100 nM
CCOc1cc(C(=O)N(C)[C@H](CCNC)c2cccc3cn[nH]c23)ccc1-c1cccc(Cl)c1 [Compound 233] | < 100 nM
CCOc1cc(C(=O)N(C)[C@H](COC)c2cncc3cn[nH]c23)ccc1-c1cccc(Cl)c1 [Compound 014] | < 100 nM
CCOc1cc(C(=O)N(C)[C@H](c2cncc3cn[nH]c23)C2CNC2)ccc1-c1cccc(F)c1 [Compound 092] | 100 to 500 nM
CN(C(=O)c1ccc(-c2cccc(Cl)c2)c(OC2CC2)c1)[C@@H](CCO)c1cncc2cn[nH]c12 [Compound 012] | 100 to 500 nM
CCOc1cc(C(=O)N(CCO)Cc2cnc(NC)c3cn[nH]c23)ccc1-c1cccc(Cl)c1 [Compound 049] | < 100 nM

Compound | IC50
CCOc1cc(C(=O)N(C)[C@@H](CO)c2cnc(C)c3cn[nH]c23)ccc1-c1cccc(F)c1 [Compound 027] | < 100 nM
CCOc1cc(C(=O)N(C[C@@H](C)O)[C@@H](C)c2cnc(C)c3cn[nH]c23)ccc1-c1cccc(F)c1 [Compound 060] | > 15000 nM
CCOc1cc(C(=O)N(C)C(c2cccc3cn[nH]c23)C2CN(C)C2)ccc1-c1cccc(Cl)c1 (stereo not shown) [Compound 241] | < 100 nM
CCOc1cc(C(=O)N(C)[C@@H](c2cnc(C)c3cn[nH]c23)[C@@H](C)O)ccc1-c1cccc(Cl)c1 [Compound 024] | < 100 nM
CCOc1cc(C(=O)N(C)[C@H](c2cncc3cn[nH]c23)C2CN(CC)C2)ccc1-c1ccccc1 [Compound 134] | 1000 to 15000 nM
CCOc1cc(C(=O)N(C)[C@H](CCN(C)CCO)c2cncc3cn[nH]c23)ccc1-c1cccc(F)c1 [Compound 262] | < 100 nM
CCOc1cc(C(=O)N(C)[C@H](CO)c2cnc(CC)c3cn[nH]c23)ccc1-c1cccc(F)c1 [Compound 033] | < 100 nM
CCOc1cc(C(=O)N(C)[C@H](CO)c2cnc(C)c3cn[nH]c23)ccc1-c1ccccc1 [Compound 020] | 100 to 500 nM
CCOc1cc(C(=O)N(Cc2cccc3cn[nH]c23)[C@H]2C[C@@H](NC)C2)ccc1-c1cccc(C#N)c1 [Compound 265] | < 100 nM
CCOc1cc(C(=O)N(C)[C@H](CC[N+](C)(C)[O-])c2cncc3cn[nH]c23)ccc1-c1ccccc1 [Compound 166] | < 100 nM
CCOc1cc(C(=O)N(C)[C@H](CC[N+]([O-])(CC)CC)c2cncc3cn[nH]c23)ccc1-c1cccc(Cl)c1 [Compound 255] | < 100 nM
CCOc1cc(C(=O)N(C)[C@@H](CN2CC(N(C)C)C2)c2cncc3cn[nH]c23)ccc1-c1cccc(F)c1 [Compound 187] | < 100 nM
Cc1ccc([C@@H](CCN(C)C)N(C)C(=O)c2ccc(-c3cccc(F)c3)c(OC3CC3)c2)c2[nH]ncc12 [Compound 202] | < 100 nM
CCOc1cc(C(=O)N(C)[C@@H](CCO)c2cnc(C)c3cn[nH]c23)ccc1-c1ccccc1 [Compound 028] | > 15000 nM
CCOc1cc(C(=O)N(Cc2cccc3cn[nH]c23)[C@H]2C[C@@H](N)C2)ccc1-c1cccc(F)c1 [Compound 250] | < 100 nM
CCOc1cc(C(=O)N(C)[C@H](c2cccc3cn[nH]c23)C2CN(C)C2)ccc1-c1cccc(F)c1 [Compound 298] | < 100 nM
